# Results taken from PubChem BioAssay AID256 (DTP/NCI, 2004).
# Where “and” joins values, the source holds several entries; their conditions need not be identical. Identical values can stand only once. Toxic doses and inconclusive results are not listed.
# Tested on: CD2F1 mice, L1210 leukemia ip, survival T/C
# Assay: NCI In Vivo Anticancer Drug Screen. Data for tumor model L1210 Leukemia (intraperitoneal) in CD2F1 (CDF1) mice
# Details: higher = longer survival
# How it was run: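 Mice carrying a transplanted tumor received test compound or vehicle alone. The value is the measurement in the treated group divided by that in the vehicle-treated control group.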
# [1] = endpoint: mean survival time, dose: 100.0 mg/kg/injection, schedule: Q01DX009 (ip), vehicle: saline with Tween-80
# [2] = endpoint: mean survival time, dose: 200.0 mg/kg/injection, schedule: Q01DX009 (ip), vehicle: saline with Tween-80
# [3] = endpoint: mean survival time, dose: 100.0 mg/kg/injection, schedule: Q04DX003 (ip), vehicle: saline with Tween-80
# [4] = endpoint: mean survival time, dose: 200.0 mg/kg/injection, schedule: Q04DX003 (ip), vehicle: saline with Tween-80
# [5] = endpoint: mean survival time, dose: 400.0 mg/kg/injection, schedule: Q04DX003 (ip), vehicle: saline with Tween-80
# [6] = endpoint: mean survival time, dose: 100.0 mg/kg/injection, schedule: Q01DX001 (ip), vehicle: saline
structure (smiles),measurement,setting,value
Cc1c(N)nc([C@H](CC(N)=O)NC[C@H](N)C(N)=O)nc1C(=O)N[C@H](C(=O)N[C@H](C)[C@@H](O)[C@H](C)C(=O)N[C@H](C(=O)NCCc1nc(-c2nc(C(=O)NCCC[S+](C)C)cs2)cs1)[C@@H](C)O)C(OC1OC(CO)C(O)C(O)C1OC1OC(CO)C(O)C(OC(N)=O)C1O)c1cnc[nH]1 (some centres not stated),T/C,"endpoint: mean survival time, dose: 2.0 mg/kg/injection, schedule: Q01DX009 (ip), vehicle: saline",103 % of control and 106 % of control
same,T/C,"endpoint: mean survival time, dose: 2.0 mg/kg/injection, schedule: Q01DX009 (ip), vehicle: water",106 % of control
same,T/C,"endpoint: mean survival time, dose: 4.0 mg/kg/injection, schedule: Q01DX009 (ip), vehicle: water",110 % of control
same,T/C,"endpoint: mean survival time, dose: 8.0 mg/kg/injection, schedule: Q01DX009 (ip), vehicle: water",110 % of control
same,T/C,"endpoint: mean survival time, dose: 12.0 mg/kg/injection, schedule: Q01DX009 (ip), vehicle: saline",117 % of control
same,T/C,"endpoint: mean survival time, dose: 16.0 mg/kg/injection, schedule: Q01DX009 (ip), vehicle: water",108 % of control
same,T/C,"endpoint: mean survival time, dose: 32.0 mg/kg/injection, schedule: Q01DX009 (ip), vehicle: saline",115 % of control and 104 % of control
same,T/C,"endpoint: mean survival time, dose: 32.0 mg/kg/injection, schedule: Q01DX009 (ip), vehicle: water",103 % of control
same,T/C,"endpoint: mean survival time, dose: 64.0 mg/kg/injection, schedule: Q01DX009 (ip), vehicle: saline",104 % of control
same,T/C,"endpoint: median survival time, dose: 0.5 mg/kg/injection, schedule: Q01DX009 (ip), vehicle: saline",88 % of control
same,T/C,"endpoint: median survival time, dose: 0.5 mg/kg/injection, schedule: Q03HX024 (ip), vehicle: saline",105 % of control
same,T/C,"endpoint: median survival time, dose: 1.0 mg/kg/injection, schedule: Q01DX009 (ip), vehicle: saline",100 % of control and 108 % of control
same,T/C,"endpoint: median survival time, dose: 1.0 mg/kg/injection, schedule: Q03HX016 (ip), vehicle: saline",104 % of control
same,T/C,"endpoint: median survival time, dose: 1.0 mg/kg/injection, schedule: Q03HX024 (ip), vehicle: saline",105 % of control
same,T/C,"endpoint: median survival time, dose: 2.0 mg/kg/injection, schedule: Q03HX008 (ip), vehicle: saline",109 % of control
same,T/C,"endpoint: median survival time, dose: 2.0 mg/kg/injection, schedule: Q03HX016 (ip), vehicle: saline",104 % of control
same,T/C,"endpoint: median survival time, dose: 2.0 mg/kg/injection, schedule: Q03HX024 (ip), vehicle: saline",104 % of control
same,T/C,"endpoint: median survival time, dose: 4.0 mg/kg/injection, schedule: Q03HX008 (ip), vehicle: saline",104 % of control
same,T/C,"endpoint: median survival time, dose: 4.0 mg/kg/injection, schedule: Q03HX016 (ip), vehicle: saline",97 % of control
same,T/C,"endpoint: median survival time, dose: 4.0 mg/kg/injection, schedule: Q03HX024 (ip), vehicle: saline",104 % of control
same,T/C,"endpoint: median survival time, dose: 8.0 mg/kg/injection, schedule: Q03HX008 (ip), vehicle: saline",107 % of control
same,T/C,"endpoint: median survival time, dose: 8.0 mg/kg/injection, schedule: Q03HX016 (ip), vehicle: saline",104 % of control
same,T/C,"endpoint: median survival time, dose: 8.0 mg/kg/injection, schedule: Q04DX003 (ip), vehicle: saline",107 % of control
same,T/C,"endpoint: median survival time, dose: 8.0 mg/kg/injection, schedule: Q08DX002 (ip), vehicle: saline",105 % of control
same,T/C,"endpoint: median survival time, dose: 16.0 mg/kg/injection, schedule: Q01DX001 (ip), vehicle: saline",103 % of control
same,T/C,"endpoint: median survival time, dose: 16.0 mg/kg/injection, schedule: Q03HX008 (ip), vehicle: saline",103 % of control
same,T/C,"endpoint: median survival time, dose: 16.0 mg/kg/injection, schedule: Q03HX016 (ip), vehicle: saline",101 % of control
same,T/C,"endpoint: median survival time, dose: 16.0 mg/kg/injection, schedule: Q04DX003 (ip), vehicle: saline",109 % of control
same,T/C,"endpoint: median survival time, dose: 16.0 mg/kg/injection, schedule: Q08DX002 (ip), vehicle: saline",105 % of control
same,T/C,"endpoint: median survival time, dose: 32.0 mg/kg/injection, schedule: Q01DX001 (ip), vehicle: saline",98 % of control
same,T/C,"endpoint: median survival time, dose: 32.0 mg/kg/injection, schedule: Q04DX003 (ip), vehicle: saline",101 % of control
same,T/C,"endpoint: median survival time, dose: 32.0 mg/kg/injection, schedule: Q08DX002 (ip), vehicle: saline",102 % of control
same,T/C,"endpoint: median survival time, dose: 64.0 mg/kg/injection, schedule: Q01DX001 (ip), vehicle: saline",98 % of control
same,T/C,"endpoint: median survival time, dose: 64.0 mg/kg/injection, schedule: Q04DX003 (ip), vehicle: saline",104 % of control
same,T/C,"endpoint: median survival time, dose: 64.0 mg/kg/injection, schedule: Q08DX002 (ip), vehicle: saline",107 % of control
same,T/C,"endpoint: median survival time, dose: 128.0 mg/kg/injection, schedule: Q01DX001 (ip), vehicle: saline",105 % of control
same,T/C,"endpoint: median survival time, dose: 128.0 mg/kg/injection, schedule: Q04DX003 (ip), vehicle: saline",115 % of control
same,T/C,"endpoint: median survival time, dose: 128.0 mg/kg/injection, schedule: Q08DX002 (ip), vehicle: saline",97 % of control
same,T/C,"endpoint: median survival time, dose: 256.0 mg/kg/injection, schedule: Q01DX001 (ip), vehicle: saline",107 % of control
OCc1ccc(Cl)cc1Cl,T/C,[1],93 % of control
same,T/C,[2],92 % of control
O=C(CCCN1CCN2Cc3[nH]c4ccccc4c3CC2C1)c1ccc(F)cc1 (configuration not stated),T/C,"endpoint: mean survival time, dose: 25.0 mg/kg/injection, schedule: Q04DX003 (ip), vehicle: saline with Tween-80",101 % of control
same,T/C,"endpoint: mean survival time, dose: 50.0 mg/kg/injection, schedule: Q04DX003 (ip), vehicle: saline with Tween-80",107 % of control
same,T/C,[3],103 % of control
CCCCCCCCCCCSCCCCCCCCCCC,T/C,[1],104 % of control
same,T/C,[3],98 % of control
same,T/C,[2],103 % of control
same,T/C,[4],101 % of control
same,T/C,"endpoint: mean survival time, dose: 400.0 mg/kg/injection, schedule: Q01DX009 (ip), vehicle: saline with Tween-80",103 % of control
same,T/C,[5],98 % of control
CC(=O)OCC1OC([n+]2c([O-])cc(=O)n3ccsc32)C(OC(C)=O)C1OC(C)=O (configuration not stated),T/C,"endpoint: median survival time, dose: 11.25 mg/kg/injection, schedule: Q01DX005 (ip), vehicle: water",101 % of control
same,T/C,"endpoint: median survival time, dose: 12.5 mg/kg/injection, schedule: Q01DX005 (ip), vehicle: distilled water + Tween-80",103 % of control
same,T/C,"endpoint: median survival time, dose: 22.5 mg/kg/injection, schedule: Q01DX005 (ip), vehicle: water",100 % of control
same,T/C,"endpoint: median survival time, dose: 25.0 mg/kg/injection, schedule: Q01DX005 (ip), vehicle: distilled water + Tween-80",98 % of control
same,T/C,"endpoint: median survival time, dose: 45.0 mg/kg/injection, schedule: Q01DX005 (ip), vehicle: water",108 % of control
same,T/C,"endpoint: median survival time, dose: 50.0 mg/kg/injection, schedule: Q01DX005 (ip), vehicle: distilled water + Tween-80",98 % of control
same,T/C,"endpoint: median survival time, dose: 90.0 mg/kg/injection, schedule: Q01DX005 (ip), vehicle: water",114 % of control
same,T/C,"endpoint: median survival time, dose: 100.0 mg/kg/injection, schedule: Q01DX005 (ip), vehicle: distilled water + Tween-80",102 % of control
same,T/C,"endpoint: median survival time, dose: 180.0 mg/kg/injection, schedule: Q01DX005 (ip), vehicle: water",101 % of control
same,T/C,"endpoint: median survival time, dose: 200.0 mg/kg/injection, schedule: Q01DX005 (ip), vehicle: distilled water + Tween-80",95 % of control
C=C(CCCCCCCCCCCCCCCC)C(=O)O,T/C,"endpoint: mean survival time, dose: 25.0 mg/kg/injection, schedule: Q04DX002 (ip), vehicle: saline with Tween-80",90 % of control
same,T/C,"endpoint: mean survival time, dose: 50.0 mg/kg/injection, schedule: Q04DX002 (ip), vehicle: saline with Tween-80",87 % of control
same,T/C,"endpoint: mean survival time, dose: 100.0 mg/kg/injection, schedule: Q04DX002 (ip), vehicle: saline with Tween-80",94 % of control
CCOc1nc(=O)n(C2OC(CO)C(O)C2O)s1 (configuration not stated),T/C,"endpoint: mean survival time, dose: 12.5 mg/kg/injection, schedule: Q01DX005 (ip), vehicle: distilled water + Tween-80",100 % of control
same,T/C,"endpoint: mean survival time, dose: 25.0 mg/kg/injection, schedule: Q01DX005 (ip), vehicle: distilled water + Tween-80",101 % of control
same,T/C,"endpoint: mean survival time, dose: 50.0 mg/kg/injection, schedule: Q01DX005 (ip), vehicle: distilled water + Tween-80",101 % of control
same,T/C,"endpoint: mean survival time, dose: 100.0 mg/kg/injection, schedule: Q01DX005 (ip), vehicle: distilled water + Tween-80",97 % of control
same,T/C,"endpoint: mean survival time, dose: 200.0 mg/kg/injection, schedule: Q01DX005 (ip), vehicle: distilled water + Tween-80",102 % of control
NNC(=O)c1nnc(NN)[nH]c1=O,T/C,"endpoint: mean survival time, dose: 100.0 mg/kg/injection, schedule: Q01DX001 (ip), vehicle: carboxymethylcellulose (CMC)",102 % of control
same,T/C,"endpoint: mean survival time, dose: 200.0 mg/kg/injection, schedule: Q01DX001 (ip), vehicle: carboxymethylcellulose (CMC)",100 % of control
same,T/C,"endpoint: mean survival time, dose: 400.0 mg/kg/injection, schedule: Q01DX001 (ip), vehicle: carboxymethylcellulose (CMC)",93 % of control
Cc1nc(N)nc2ccccc12,T/C,[6],100 % of control
CCOC(=O)/C(C#N)=N\O,T/C,[6],102 % of control
COc1ccc(C(=O)NC[n+]2ccccc2)cc1,T/C,"endpoint: mean survival time, dose: 100.0 mg/kg/injection, schedule: Q04DX003 (ip), vehicle: saline",109 % of control
COC(=O)C(CCCCN)NC(=O)c1ccccc1 (configuration not stated),T/C,[3],101 % of control
same,T/C,[4],103 % of control
same,T/C,[5],101 % of control
CN(C)CCNc1ccc(NCCN(C)C)c2c1C(=O)c1ccccc1C2=O,T/C,"endpoint: mean survival time, dose: 3.75 mg/kg/injection, schedule: Q01DX009 (ip), vehicle: saline with Tween-80",104 % of control
same,T/C,"endpoint: mean survival time, dose: 7.5 mg/kg/injection, schedule: Q01DX009 (ip), vehicle: saline with Tween-80",107 % of control
same,T/C,"endpoint: mean survival time, dose: 15.0 mg/kg/injection, schedule: Q01DX009 (ip), vehicle: saline with Tween-80",117 % of control
same,T/C,"endpoint: mean survival time, dose: 30.0 mg/kg/injection, schedule: Q01DX009 (ip), vehicle: saline with Tween-80",150 % of control
same,T/C,"endpoint: mean survival time, dose: 60.0 mg/kg/injection, schedule: Q01DX009 (ip), vehicle: saline with Tween-80",100 % of control
